From US12391670B2, “Functionalized aminotriazines” (LEADXPRO AG, priority 2018, dated 2025)
Where two headings read alike, the source gives them in different places.

Assays:
human A2A receptor = human A2A receptor (Homo sapiens (Human), UniProt P29274); experiment: Radioligand binding competition assay, [3H]-NECA, membranes from HEK293 cells transfected with human A2A receptor; details: radioligand binding
Experimental: (§1) For all four adenosine receptors (A1, A2A, A2B and A3) filtration binding assay was performed. Radioligand binding competition assay was done in duplicates in the wells of a 96-well plate (Master Block, Greiner, 786201) containing binding buffer, receptor membrane extracts, a fixed concentration of tracer and test compound at increasing concentrations. In order to eliminate effect of buffer components, binding buffer was the same for all four receptors and contained: 50 mM Tris-HCl pH 7.4, 5 mM MgCl2, 1 mM EDTA, 150 mM NaCl, 0.1% Na-azide, and 5 U/ml adenosine-deaminase. Nonspecific binding was determined by co-incubation with 200-fold excess of cold competitor. In all radioligand binding experiments, the samples were incubated in a final volume of 0.1 ml for 60 minutes at 25° C. and then filtered over Unifilter plates (Perkin Elmer) pre-treated for 2 hours to limit tracer non-specific binding. Filters were washed five times with 0.5 ml of ice-cold washing buffer (50 mM Tris-HCl pH 7.4, 5 mM MgCl2, 1 mM EDTA) and 50 μl of Microscint 20 (Perkin Elmer) were added to each filter. The plates are incubated 15 min at room temperature on an orbital shaker and then counted with a TopCount™ for 1 min/well.
For A2A receptor the assay was performed with [^3H]-NECA and membranes from HEK293 cells transfected with human A2A receptor (Euroscreen FAST-002B).

[1] = molecular target: A2B receptors endogenously expressed in HEK293 cells (Homo sapiens (Human), UniProt P29275); experiment: cAMP assay (a), HEK293 cells with A2B receptors endogenously expressed; type: cell-based; details: stimulated with 5 μM NECA
Experimental: (§2) Two assays have been employed, one using HEK293 with A2B receptors endogenously expressed (named cAMP assay (a) in the following) and a second one using HEK293 cells impressing recombinant human A2B receptors (named cAMP assay (b) in the following)
Real-time cAMP-assays in live cells were performed in HEK293 cells stably expressing the EPAC-sensor (I. Vedel, et al., 2015, J. Biomol. Screen. 20, 849-857).
In order to test for cAMP inhibition by preferred compounds of formula I and antagonists, respectively, from this invention, endogenous A2A and A2B expression in above cell lines was exploited. To run the assay, cells were incubated in 80 μl assay buffer for 15 minutes at room temperature. The assay buffer was composed of Hanks Balanced Salt Solution (Gibco) with 20 mM HEPES, pH 7.4 and […] adenosine-deaminase. All cAMP assays were run at room temperature using a PHERAstar FSX plate reader. The FRET donor (mCerulean) was excited at 430 nm. Fluorescence emission was measured at 480 nm and 530 nm for 65 minutes (cycle time 1.45 min). Prior to stimulation fluorescence was measured for 10 min (baseline). Subsequently cells were stimulated with 5 μM NECA (5′-(N-Ethylcarboxamido)adenosine; Tocris, Cat.-No:35920-39-9). Sharply 10.15 min after stimulation the compounds were added at increasing concentrations (between 0 and 200 μM) and fluorescence was recorded for 40 min. Each compound concentration was measured in duplicates.

human A2B receptor [2] = molecular target: T1, human A2B receptor (Homo sapiens (Human), UniProt P29275); experiment: Radioligand binding competition assay, [3H]-DPCPX, membranes from HEK293 cells transfected with human A2B receptor
Experimental: as §1
For A2B, the assay was carried with [^3H]-DPCPX and membranes prepared from HEK293 cells transfected with human A2B receptor (Euroscreen FAST-003B).

human A2B receptor [3] = molecular target: T1, human A2B receptor; experiment: cAMP assay (b), HEK293 cells expressing recombinant human A2B receptor; type: cell-based; details: reference agonist at EC80, read-out: cAMP pIC50 (converted)
Experimental: as §2
Dose response curves were performed in parallel with the reference compounds. 12 μl of cells were mixed with 6 μl of the test compound at increasing concentrations and then incubated 10 min. Thereafter 6 μl of the reference agonist was added at a final concentration corresponding to the historical EC80. The plates were then incubated for 30 min at room temperature. After addition of the lysis buffer and 1 hour incubation, cAMP concentrations were estimated, according to the manufacturer specification, with the HTRF kit.

human A1 receptor = human A1 receptor (Homo sapiens (Human), UniProt P30542); experiment: Radioligand binding competition assay, [3H]-DPCPX, membranes from CHO-K1 cells transfected with human A1 receptor
Experimental: as §1
For A1 receptor the assay was performed with [^3H]-DPCPX and membranes from CHO-K1 cells transfected with human A1 receptor (Euroscreen FAST-00B).

human A3 receptor = human A3 receptor (Homo sapiens (Human), UniProt P0DMS8); experiment: Radioligand binding competition assay, [125I]-MECA, membranes from CHO-K1 cells transfected with human A3 receptor
Experimental: as §1
For A3, the assay was carried out with [^125I]-MECA and membranes from CHO-K1 cells transfected with human A3 receptor (Euroscreen FAST-004B).

[4] = read-out: cAMP pIC50 (converted)

T1 sequence (P29275 whole entry): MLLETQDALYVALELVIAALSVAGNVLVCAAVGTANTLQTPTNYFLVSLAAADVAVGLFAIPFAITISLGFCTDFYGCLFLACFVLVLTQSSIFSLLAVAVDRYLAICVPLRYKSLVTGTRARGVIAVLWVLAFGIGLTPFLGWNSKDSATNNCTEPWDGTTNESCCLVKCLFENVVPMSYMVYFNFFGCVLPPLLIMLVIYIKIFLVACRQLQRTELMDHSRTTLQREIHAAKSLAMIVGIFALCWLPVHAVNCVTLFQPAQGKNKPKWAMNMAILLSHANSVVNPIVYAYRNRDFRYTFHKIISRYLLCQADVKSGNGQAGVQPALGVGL
Chain of A2B receptors endogenously expressed in HEK293 cells (P29275 whole entry): as above
Chain of human A2A receptor (P29274 whole entry): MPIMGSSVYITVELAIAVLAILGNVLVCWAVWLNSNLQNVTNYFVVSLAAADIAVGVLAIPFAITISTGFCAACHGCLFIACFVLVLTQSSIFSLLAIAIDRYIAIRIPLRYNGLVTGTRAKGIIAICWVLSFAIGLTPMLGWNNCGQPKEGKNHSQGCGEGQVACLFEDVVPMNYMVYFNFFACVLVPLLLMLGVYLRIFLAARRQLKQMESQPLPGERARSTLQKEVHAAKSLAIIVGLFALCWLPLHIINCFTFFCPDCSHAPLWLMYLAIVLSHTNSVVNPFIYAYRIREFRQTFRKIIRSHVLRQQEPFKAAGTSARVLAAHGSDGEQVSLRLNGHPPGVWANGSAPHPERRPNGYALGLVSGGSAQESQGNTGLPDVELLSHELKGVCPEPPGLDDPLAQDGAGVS
Chain of human A1 receptor (P30542 whole entry): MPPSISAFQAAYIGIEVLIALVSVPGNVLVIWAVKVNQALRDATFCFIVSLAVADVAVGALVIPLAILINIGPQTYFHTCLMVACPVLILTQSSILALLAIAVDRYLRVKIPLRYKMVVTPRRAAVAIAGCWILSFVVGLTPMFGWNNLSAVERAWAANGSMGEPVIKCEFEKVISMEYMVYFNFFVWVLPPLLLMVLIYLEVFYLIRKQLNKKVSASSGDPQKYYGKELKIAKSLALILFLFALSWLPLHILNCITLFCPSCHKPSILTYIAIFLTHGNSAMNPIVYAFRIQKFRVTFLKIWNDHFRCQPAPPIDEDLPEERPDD
Chain of human A3 receptor (P0DMS8 whole entry): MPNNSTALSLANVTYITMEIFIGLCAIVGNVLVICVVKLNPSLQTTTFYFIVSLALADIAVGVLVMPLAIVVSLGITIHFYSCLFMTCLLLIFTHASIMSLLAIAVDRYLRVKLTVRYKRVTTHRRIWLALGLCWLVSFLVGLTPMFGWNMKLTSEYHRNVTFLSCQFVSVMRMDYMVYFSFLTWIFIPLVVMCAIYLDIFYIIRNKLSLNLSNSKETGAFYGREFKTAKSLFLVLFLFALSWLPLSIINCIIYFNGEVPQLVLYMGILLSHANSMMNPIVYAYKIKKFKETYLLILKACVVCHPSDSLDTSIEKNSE

Row | Human A2A Receptor pKi (human A2A receptor) | Human A2B Receptor pKi (human A2B receptor [2]) | IC50 (human A2B receptor [2]) | IC50 (human A2B receptor [3]) | SMILES | other results
1 | <4.70 | 5.95 | 1250 nM |  | Fc1cnccc1-c1nnc(Nc2nccs2)nc1-c1cccnc1 [Example 3, N-(6-(3-fluoropyridin-4-yl)-5-(pyridin-3-yl)-1,2,4-triazin-3-yl)thiazol-2-amine] | IC50 [1]: 2000 nM; IC50 [1, 4]: 2000 nM
2 | 6 | 7.81 |  | 66.1 nM | Cc1ccc(Nc2nnc(-c3ccncc3F)c(-c3ccccc3F)n2)cn1 [Example 21, 5-(2-fluorophenyl)-6-(3-fluoro-4-pyridyl)-N-(6-methyl-3-pyridyl)-1,2,4-triazin-3-amine] | 
3 |  | 6.68 |  |  | CCc1n[nH]c(Nc2nnc(-c3ccncc3F)c(-c3ccccc3F)n2)n1 [Example 18, N-(3-ethyl-1H-1,2,4-triazol-5-yl)-5-(2-fluorophenyl)-6-(3-fluoro-4-pyridyl)-1,2,4-triazin-3-amine] | Human A1 Receptor pKi (human A1 receptor): 5.00
4 | <4.70 | 5.38 | 4660 nM |  | Cc1nsc(Nc2nnc(-c3ccncc3F)c(-c3cccnc3)n2)n1 [Example 5, N-(6-(3-fluoropyridin-4-yl)-5-(pyridin-3-yl)-1,2,4-triazin-3-yl)-3-methyl-1,2,4-thiadiazol-5-amine] | 
5 |  | 7.33 |  | 107 nM | Fc1cnccc1-c1nnc(Nc2ccc(C(F)(F)F)nc2)nc1-c1ccccc1F [Example 24, 5-(2-fluorophenyl)-6-(3-fluoro-4-pyridyl)-N-[6-(trifluoromethyl)-3-pyridyl]-1,2,4-triazin-3-amine] | Human A1 Receptor pKi (human A1 receptor): 5.58
6 |  | 7.27 |  | 275 nM | Fc1cnccc1-c1nnc(Nc2nc(C3CC3)n[nH]2)nc1-c1ccccc1F [Example 31, N-(3-cyclopropyl-1H-1,2,4-triazol-5-yl)-5-(2-fluorophenyl)-6-(3-fluoro-4-pyridyl)-1,2,4-triazin-3-amine] | Human A1 Receptor pKi (human A1 receptor): 5.00
7 | 4.7 | 7.95 |  | 29.5 nM | OCc1ccc(Nc2nnc(-c3ccncc3F)c(-c3ccccc3F)n2)cn1 [Example 22, [5-[[5-(2-fluorophenyl)-6-(3-fluoro-4-pyridyl)-1,2,4-triazin-3-yl]amino]-2-pyridyl]methanol] | 
8 |  | 6.94 |  |  | COc1ccc(NC(=O)Nc2nnc(-c3ccncc3F)c(-c3ccccc3F)n2)cc1 [Example 29, 1-[5-(2-fluorophenyl)-6-(3-fluoro-4-pyridyl)-1,2,4-triazin-3-yl]-3-(4-methoxyphenyl)urea] | 
9 | 5.84 | 7.65 |  | 50.1 nM | CC(C)(O)c1ccc(Nc2nnc(-c3ccncc3F)c(-c3ccccc3F)n2)cn1 [Example 38, 2-(5-{[5-(2-fluorophenyl)-6-(3-fluoropyridin-4-yl)-1,2,4-triazin-3-yl]amino}pyridin-2-yl)propan-2-ol] | Human A1 Receptor pKi (human A1 receptor): 6.26; Human A3 Receptor pKi (human A3 receptor): 6.42
10 | 6.57 | 7.43 |  | 105 nM | COc1ccc(Nc2nnc(-c3ccncc3F)c(-c3ccccc3F)n2)cn1 [Example 23, 5-(2-fluorophenyl)-6-(3-fluoro-4-pyridyl)-N-(6-methoxy-3-pyridyl)-1,2,4-triazin-3-amine] | 
11 |  | 6.55 |  |  | O=C(Nc1nnc(-c2ccncc2F)c(-c2ccccc2F)n1)NC1CC1 [Example 35, 1-cyclopropyl-3-[5-(2-fluorophenyl)-6-(3-fluoro-4-pyridyl)-1,2,4-triazin-3-yl]urea] | 
12 | 5.8 | 7.17 |  | 324 nM | Cc1cnc(-c2nc(Nc3cccc(F)c3)nnc2-c2ccncc2F)o1 [Example 17, N-(3-fluorophenyl)-6-(3-fluoropyridin-4-yl)-5-(5-methyloxazol-2-yl)-1,2,4-triazin-3-amine] | 
13 | <4.70 | 5.37 | 4770 nM |  | Cc1nnc(Nc2nnc(-c3ccncc3F)c(-c3cccnc3)n2)s1 [Example 6, N-(6-(3-fluoropyridin-4-yl)-5-(pyridin-3-yl)-1,2,4-triazin-3-yl)-5-methyl-1,3,4-thiadiazol-2-amine] | IC50 [1]: 3980 nM; IC50 [1, 4]: 3980 nM
14 | <4.70 | 6.02 | 1070 nM |  | Fc1ccccc1-c1nc(Nc2nc(Cl)cs2)nnc1-c1ccnc(C(F)(F)F)c1 [Example 10, 4-chloro-N-(5-(2-fluorophenyl)-6-(2-(trifluoromethyl)pyridin-4-yl)-1,2,4-triazin-3-yl)thiazol-2-amine] | 
15 | 6.00 | 7.58 |  |  | Fc1cnccc1-c1nnc(Nc2ccc(C3CC3)nc2)nc1-c1ccccc1F [Example 44, N-(6-cyclopropylpyridin-3-yl)-5-(2-fluorophenyl)-6-(3-fluoropyridin-4-yl)-1,2,4-triazin-3-amine] | 
16 | 6.25 | 7.89 |  |  | CC(O)c1ccc(Nc2nnc(-c3ccncc3F)c(-c3ccccc3F)n2)cn1 (stereo not shown) [Example 40, 1-(5-{[5-(2-fluorophenyl)-6-(3-fluoropyridin-4-yl)-1,2,4-triazin-3-yl]amino}pyridin-2-yl)ethan-1-ol] | 
17 | <4.70 | 5.25 | 6320 nM |  | CNC(=O)Nc1nnc(-c2ccncc2F)c(-c2cccnc2)n1 [Example 7, 1-(6-(3-fluoropyridin-4-yl)-5-(pyridin-3-yl)-1,2,4-triazin-3-yl)-3-methylurea] | IC50 [1]: 6920 nM; IC50 [1, 4]: 6920 nM
18 | 6.1 | 7.84 |  |  | OCc1ccc(Nc2nnc(-c3ccncc3F)c(-c3ccccc3F)n2)cc1F [Example 37, (2-fluoro-4-{[5-(2-fluorophenyl)-6-(3-fluoropyridin-4-yl)-1,2,4-triazin-3-yl]amino}phenyl)methanol] | 
19 | 4.49 | 6.42 | 420 nM |  | Fc1cccc(Nc2nnc(-c3ccncc3F)c(-c3ccccc3F)n2)c1 [Example 12, 5-(2-fluorophenyl)-N-(3-fluorophenyl)-6-(3-fluoropyridin-4-yl)-1,2,4-triazin-3-amine] | IC50 (human A2A receptor): 32600 nM
20 | 6.56 | 7.42 |  |  | Fc1cnccc1-c1nnc(Nc2ccc(OCC(F)F)nc2)nc1-c1ccccc1F [Example 36, N-[6-(2,2-difluoroethoxy)pyridin-3-yl]-5-(2-fluorophenyl)-6-(3-fluoropyridin-4-yl)-1,2,4-triazin-3-amine] | 
21 |  | 7.01 |  |  | CC(C)(C)c1n[nH]c(Nc2nnc(-c3ccncc3F)c(-c3ccccc3F)n2)n1 [Example 46, N-(3-tert-butyl-1H-1,2,4-triazol-5-yl)-5-(2-fluorophenyl)-6-(3-fluoropyridin-4-yl)-1,2,4-triazin-3-amine] | 
22 | <4.70 | 5.98 | 1170 nM |  | Cc1nsc(Nc2nnc(-c3ccncc3F)c(-c3ccccc3F)n2)n1 [Example 13, N-(5-(2-fluorophenyl)-6-(3-fluoropyridin-4-yl)-1,2,4-triazin-3-yl)-3-methyl-1,2,4-thiadiazol-5-amine] | 
